“And” between values parts separate entries of the source, which are not always exact repeats. Identical values can stand only once.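 Each compound was tested at five concentrations against cells in 96-well plates for 48 hours. The concentration for 50% growth inhibition is given as GI50. Definition used: TGI = concentration required for complete inhibition of growth.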
Assays:
Test in all cases: NCI tumour cell line growth inhibition, 48 h
DLD-1 colon = tested on: DLD-1 colon
M19-MEL melanoma = tested on: M19-MEL melanoma
XF 498 CNS = tested on: XF 498 CNS
LXFL 529 NSCLC = tested on: LXFL 529 NSCLC
KM20L2 colon = tested on: KM20L2 colon
DMS 273 small cell lung = tested on: DMS 273 small cell lung
T-47D breast = tested on: T-47D breast
PC-3 prostate = tested on: PC-3 prostate
HS 578T breast = tested on: HS 578T breast
BT-549 breast = tested on: BT-549 breast

Row | SMILES | TGI (DLD-1 colon) | TGI (M19-MEL melanoma) | TGI (XF 498 CNS) [µM] | TGI (LXFL 529 NSCLC) | TGI (KM20L2 colon) [µM] | TGI (DMS 273 small cell lung) [µM] | other results
1 | CCOC(=O)C1=C(C)NC2=C(C(=O)N(c3ccccc3)C2c2ccccc2)C1c1ccccc1 (stereo unspecified) | 34.5 µM | 32.3 µM | 37.5 | 30.3 µM |  |  | 
2 | COc1cc(CC2c3cc(OC)c(OC)cc3CCN2C)ccc1O (stereo unspecified) | > 100 µM |  | > 100 | > 100 µM | > 100 |  | 
3 | O=C(Cc1nc2ccccc2o1)C(=O)Nc1cccc(Cl)c1 | > 100 µM | > 100 µM | > 100 | > 100 µM | > 100 |  | 
4 | O=C(/C=C/c1ccccc1O)c1ccc([N+](=O)[O-])cc1 | 26.3 µM | 36.5 µM | 32.7 | 26.7 µM | 39.7 | 52.6 | 
5 | O=C(CCc1ccccc1)NS(=O)(=O)c1ccccc1 | > 100 µM | > 100 µM | > 100 | > 100 µM | > 100 |  | 
6 | CCOc1ccc(/C=C/c2cc(OC)c(OC)c(OC)c2)cc1 | > 100 µM | > 100 µM | > 100 | 15.1 µM | 6.81 |  | 
7 | Cn1c2c(c3ccccc31)CCN(CCCCN1CCN(c3ccccc3)CC1)C2=O | > 100 µM | > 86.7 µM | > 70.1 | > 100 µM | 33.6 | > 100 | TGI (T-47D breast): > 100 µM; TGI (PC-3 prostate): 86.6 µM; TGI (HS 578T breast): 50.6 µM
8 | CCN(CC)CC(C)C(=O)/C=C/c1ccc(C)cc1 (stereo unspecified) | 3.16 µM | 3.04 µM | 2.98 | 3.23 µM | 21.6 | 5.96 | 
9 | COc1ccc(C(=O)c2c3cc(OC)c(OC)c(OC)c3cc[n+]2C)cc1 | > 100 µM | > 100 µM | 33.3 | > 100 µM | > 100 |  | 
10 | NS(=O)(=O)c1ccc(NC(=O)Cc2nc3ccccc3s2)cc1 | 29.5 µM | 28.1 µM | 29.8 | 30.7 µM | 33.9 | 33.1 | 
11 | O=c1[nH]c(=O)n(C2CC(O)C(CO)O2)cc1C(F)(C(F)(F)F)C(F)(F)F (stereo unspecified) | > 100 µM | > 100 µM | > 100 | > 100 µM | > 100 | > 100 | 
12 | C=CC(=O)NC(N)=NC#N | 311 µM | 278 µM | 313 | 250 µM | 287 |  | GI50 (XF 498 CNS): 157 µM
13 | COC(=O)[C@@]1(C)C(=O)CC[C@@H]1C=O | > 100 µM | > 100 µM | > 100 | > 100 µM | > 100 |  | 
14 | COc1ccc(C2ON(c3ccccc3)CC=C2C)cc1 (stereo unspecified) | > 100 µM | > 100 µM | > 100 | > 100 µM | > 100 | > 100 | 
15 | CCOC(=O)C(CCC(N)=O)(CCC(=O)OC)C(=O)OCC | > 100 µM | > 100 µM | > 100 | > 100 µM | > 100 | > 100 | 
16 | CCn1c2ccccc2c(=O)c2c(OC)ccc(OC)c21 |  | > 100 µM | > 100 | > 100 µM | > 100 | > 100 | 
17 | CC(=O)OCCOCNC(=S)N/N=C/c1cc([N+](=O)[O-])ccc1O | > 100 µM | > 100 µM | > 100 | > 100 µM | > 100 | > 100 | 
18 | C[C@@H](NS(=O)(=O)c1ccc(NC(=O)c2ccccc2)cc1)C(=O)O | > 100 µM | > 100 µM | > 100 | > 100 µM | > 100 | > 100 | 
19 | Cc1[nH]c2ccccc2c1CC/C(=N\Nc1ccccc1)c1ccccc1 | > 100 µM |  | > 100 |  | > 100 | > 100 | 
20 | Cc1ccc(S(=O)(=O)N2CCN(C=S)CC2)cc1 | > 100 µM | > 100 µM |  | > 100 µM | > 100 | > 100 | 
21 | CC1=NN(C(=O)Nc2ccc(Cl)cc2)C(=O)C2CCC(=O)N12 (stereo unspecified) | > 100 µM | > 100 µM | > 100 | > 100 µM | > 100 | > 100 | 
22 | CC(=O)O[C@H]1CCN2C(=O)C=CC(OCc3ccccc3)C12 (stereo partly specified) | > 100 µM | > 100 µM | > 100 | > 100 µM | > 100 | > 100 | 
23 | CC(C)(C)C(=O)Nc1cccc2oc(-c3ccccc3)cc12 | > 100 µM | > 100 µM |  | > 100 µM | > 100 | > 100 | 
24 | COc1cc(/C=C2\CCC/C(=C\c3ccc(O)c(OC)c3)C2=O)ccc1O | 3.38 µM | 3.9 µM | 16.8 | 4.22 µM | 28.7 | 3.07 | GI50 (T-47D breast): 1.91 µM; TGI (T-47D breast): 12.2 µM and 7.41 µM; GI50 (PC-3 prostate): 3.14 µM; TGI (PC-3 prostate): 23.7 µM and 13.6 µM; GI50 (BT-549 breast): 1.76 µM; TGI (BT-549 breast): 14.2 µM and 3.28 µM; GI50 (HS 578T breast): 2.25 µM; TGI (HS 578T breast): 26.5 µM and 8.93 µM
25 | O=[N+]([O-])c1ccc(C(Cl)C(Cl)c2ccc(C(Cl)C(Cl)c3ccc([N+](=O)[O-])cc3[N+](=O)[O-])cc2)c([N+](=O)[O-])c1 (stereo unspecified) | 6.02 µM and 0.748 µM | 3.15 µM and 0.749 µM | 0.389 | 1.9 µM and 0.377 µM | 2.28 | 6.71 | GI50 (DLD-1 colon): 0.251 µM; GI50 (M19-MEL melanoma): 0.256 µM; GI50 (LXFL 529 NSCLC): 0.179 µM
26 | CCC1C(C(=O)Nc2ccccc2C)=C(C)NC(C)=C1c1ccccc1C (stereo unspecified) | > 59.7 µM | > 100 µM | > 100 | > 100 µM | > 100 | > 83.2 | 
27 | Cc1ccc(NC(=O)CC/C(CC(=O)C(C)(C)C)=N\NC(=O)C[n+]2ccccc2)cc1C |  | > 100 µM | > 100 | > 100 µM | > 100 | > 100 | 

Reference: PubChem BioAssay (NCI)
